# In US10272056B2, “Treatment for mitochondrial diseases” (The George Washington University a Congressionally …, priority 2015, dated 2019):
# How the values were obtained:
# [1] = tested on: ependymal cells of the choroid plexus; assay: In vivo mitochondrial mass of choroid plexus (SOD2 immunohistochemistry); parameters: species or system mice; conditions: NaBt intraperitoneally in E12.5 pregnant dams, brains at E17.5, vs sham
# From the text: FIG. 8 is a schematic and image from microscopy showing that NaBt increases in vivo the mitochondrial mass of ependymal cells of the choroid plexus.
# NaBt increases in vivo the mitochondrial mass of ependymal cells of the choroid plexus. NaBt's effect on mitochondrial mass of ependymal cells from the choroid plexus was investigated. It is a highly vascularized tissue lining the brain ventricles, which is responsible for producing and secreting the cerebral spinal fluid (CSF) and for supplying growth factors and key ions to the developing and mature brain ([…]). The secretory functions of the ependymal cells are highly dependent of mitochondria to ensure active transports of small ions, water and growth factors from the blood side to the CSF side. Impairment of mitochondrial functions in the choroid plexus has been documented in neurodegenerative diseases, such as Alzheimer's disease. To test the effect of NaBt in the choroid plexus of the murine developing brain, NaBt was injected intraperitoneally in E12.5 pregnant dams before dissected the brains at E17.5. Immunohistochemistry was performed on E17.5 sectioned brains to analyze the mitochondrial mass using an antibody against the mitochondrial marker SOD2.
# PC12-ND6 cells [2] = assay: NGF (100 ng/ml)-mediated neurite outgrowth after chloramphenicol; format: cell-based
# From the text: FIG. 15A-15C are images from microscopy and a graph showing that Pre-treatment of PC12-ND6 cells negates the inhibitory effect of chloramphenicol on NGF-mediated neuronal differentiation. (A) Confocal micrographs of untreated and Cm-treated PC12-ND6 cells transfected with the vector mito-GFP and exposed to NGF. Scale bar represents 20 μm. (B) Confocal micrographs of NaBt pre-treated PC12-ND6 cells transfected with the vector mito-GFP and exposed to chloramphenicol prior to NGF treatment. Scale bar represents 20 μm. (C) Graph of average total neurite length. Mean±SEM (n=50 cells; compared to untreated PC12-ND6 cells *p=0.0001; compared to non-NaBt-treated PC12-ND6 cells with corresponding Cm concentration **p=0.0001).
# Based on the results that NaBt endows PC12-ND6 cells with increased mitochondrial mass through biogenesis, resulting in accelerated neuronal differentiation, it was examined whether exposure to NaBt for three days could confer protection to chloramphenicol-mediated inhibition of neuronal differentiation upon NGF signaling.
# MELAS fibroblasts = assay: Affymetrix genome-wide microarray analysis; format: cell-based, human
# From the text: An embodiment of the novel pharmacological approach described herein uses butyrates to promote nuclear and mitochondrial metabolic reprogramming by boosting mitochondrial biogenesis and maximizing residual ATP output. […] Thus, the data validate a pharmaco-epigenomic approach and establish proof-of-principle. It was hypothesized that butyrates can augment the functional mitochondrial mass in skin fibroblasts from 20 MELAS patients. Fibroblasts from this number of patients, each with different nuclear backgrounds and heteroplasmic loads, will ensure the findings extend beyond a case study into a statistically sound and broadly applicable report. It will be tested whether butyrates: (Aim 1) induce favorable mitochondrial biogenesis, thereby shifting heteroplasmy toward healthy mitochondria; and (Aim 2) maximize ATP output via optimization of OXPHOS activity and a metabolic shift toward fatty acid beta oxidation. It is anticipated to identify the most promising butyrate candidate for alleviating the symptoms of the MELAS disease. The proposed study will set the stage for future clinical studies with the Children's National Medical Center and the North American Mitochondrial Disease Consortium, in concordance with the PAR-13-023 issued by the NINDS Office of Translational Research for R21 exploratory projects.
# PC12-ND6 cells [3] = assay: Mitochondrial mass (mito-GFP live cell microscopy, MTG/MTR flow cytometry); format: cell-based
# Experimental: PC12-ND6 cells were transfected with the mito-GFP vector prior to treatment with NaBt (5 mM) for the indicated time points. Mitochondria were visualized by live cell microscopy; scale bar=5 μm.
# FIG. 7A-7F show images from microscopy and graphs showing NaBt increases mitochondrial mass. (A) Live cell confocal microscopy of E17.5 hippocampal neurons; high magnification in inset; scale bar=5 (B) Quantitative analysis of the mitochondrial biomass in E17.5 neurons using an anti-CoxVα antibody; *p<0.001. (C) Live cell confocal microscopy of PC12-ND6 cells; high magnification in inset; scale bar=5 (D) Flow cytometric analysis of mitochondrial mass; *p<0.001. (E) Confocal microscopy of E17.5 brains from E12.5 pregnant dams treated with PBS (sham) or NaBt; scale bar=20 (F) Quantitative analysis of mitochondrial mass; *p<0.001.
# Experimental approaches. Five distinct molecular tools were used to investigate mitochondrial biogenesis: 1) the mitochondrial-specific dyes, MitoTracker® Green (MTG) and MitoTracker® Red (MTR); 2) the mito-GFP or mito-dsRed vector to fluorescently label mitochondria; 3) antibodies against mtDNA, COXVα, or SOD2; 4) the fluorescent PicoGreen® dye labeling mtDNA; and 5) quantitative PCR to determine mtDNA copy number.
# NaBt increases the mitochondrial biomass of neuronal cells in vitro and in vivo. To investigate the effect of NaBt on mitochondrial mass, PC12-ND6 cells were transfected with the mito-GFP vector before performing a time course analysis of NaBt (5 mM) treatment.
# The effect of NaBt was investigated in embryonic neuronal progenitor cells, E17.5 hippocampal neurons, which were transfected with the mito-GFP vector and then exposed to various concentrations of NaBt. […] Therefore, all subsequent treatment of E17.5 hippocampal neurons with NaBt was performed in the presence of 2 mM. […] Flow cytometric analysis using MTG- or MTR-labeled cells corroborated the NaBt-mediated increase in mitochondrial mass (FIG. 7D).
# [4] = flow cytometry, NaBt-treated vs control
smiles,measurement,setting,value
"CCCC(=O)[O-].[Na+] [NaBt, sodium butyrate]",mitochondrial mass of ependymal cells of the choroid plexus,[1],substantial increase
same,mitochondrial density in processes,"PC12-ND6 cells [2]; NaBt pre-treated, 60 μM chloramphenicol",retained a high mitochondrial density
same,total neurite length with NaBt pre-treatment,"PC12-ND6 cells [2]; NaBt three days, highest concentration of chloramphenicol, NGF",remained unaffected
same,increased expression of OXPHOS genes,"MELAS fibroblasts; 30 genes, p<0.05",≥ 1.5 fold
same,nuclear genes significantly regulated,MELAS fibroblasts; NaBt,5%
same,off-target effects,MELAS fibroblasts; NaBt,limited off-target effects
same,expression of nuclear genes involved in mitochondrial morphology and fusion-fission events,MELAS fibroblasts; NaBt-treated,increased expression levels
same,genes known to promote FAO,MELAS fibroblasts; NaBt-treated,ten upregulated genes
same,number of OXPHOS genes with increased expression,"MELAS fibroblasts; subunits of complexes II, III, IV, V, p<0.05",30
same,time of maximal increase of the mitochondrial biomass,"PC12-ND6 cells [3]; NaBt 5 mM, mito-GFP time course",after three days
same,"increase in fluorescence intensity, MTR staining",PC12-ND6 cells [3]; [4],3.5 fold
same,"increase in mitochondrial mass, MTG staining",PC12-ND6 cells [3]; [4],two-fold
